Where two headings read alike, the source gives them in different places.
Tests used:
HT29 = assay: MTT cytotoxicity assay, HT29; format: cell-based; settings: Homo sapiens; for cytotoxicity at 50 µM: read-out: % Cytotoxicity (50 µM) HT29; for IC50: 0.05–50 µM
Protocol: (§1) Cytotoxicity assays were performed by using the MTT reduction method as described previously. Briefly, cancer cell lines were plated in flat-bottom 96-well plates at a cell concentration of 5 × 10^3 cells/well for the fastest growing lines, such as HEK293 and HT29 cells and 1 × 10^4 cells/well for more slowly growing lines, such as HCT116, H1975, BxPC-3, AsPC-1, B16-F10 and DAOY. Then, cells were incubated with the synthesised compounds at different concentrations (from 0.05 to 50 µM) in 200 µL with 10% FBS in RPMI 1640 or DMEM F12 culture medium at 37 °C for 72 h. Later, 10 µL of MTT were added at a final concentration of 0.5 mg/mL, incubated at 37 °C for 4 h, and then solubilised with 10% sodium dodecyl sulphate (SDS) in 0.1 mM HCl and incubated overnight at 37 °C. Formazan formation was measured at 570 nm in a multiwell plate reader (Cytation 5, Biotek Instruments, Winooski, VT, USA). Three independent biological replicates were performed.

AsPC-1 = assay: MTT cytotoxicity assay, AsPC-1; format: cell-based; settings: Homo sapiens, ASPC1, 72 h, 0.05–50 µM
Protocol: as §1

HCT116 = assay: MTT cytotoxicity assay, HCT116; format: cell-based; settings: Homo sapiens; for cytotoxicity at 50 µM: read-out: % Cytotoxicity (50 µM) HCT116; for IC50: 0.05–50 µM
Protocol: as §1

Daoy = assay: MTT cytotoxicity assay, Daoy; format: cell-based, human; settings: Homo sapiens, Daoy, 72 h; for IC50: 0.05–50 µM; for cytotoxicity at 50 µM: read-out: % Cytotoxicity (50 µM) DAOY;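 for all read-outs here: viability read as formazan absorbance at 570 nm after MTT reduction, three independent biological replicates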
H1975 = assay: MTT cytotoxicity assay, H1975; format: cell-based; settings: Homo sapiens; for cytotoxicity at 50 µM: read-out: % Cytotoxicity (50 µM) H1975; for IC50: 0.05–50 µM
Protocol: as §1

[1] = MTT cytotoxicity assay, HEK293 control cells; format: cell-based, human; settings: human, HEK293 cells; 50 µM, 72 h, MTT;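 note: Read-out is formazan absorbance at 570 nm from MTT reduction in 96-well plates, with three independent biological replicates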
HEK293 = assay: MTT cytotoxicity assay, HEK293 control cells; format: cell-based, human; settings: Homo sapiens, HEK293; MTT, 72 h, non-cancer cell line;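 note: Read-out is formazan absorbance at 570 nm from MTT reduction in 96-well plates, with three independent biological replicates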
BxPC-3 = assay: MTT cytotoxicity assay, BxPC-3; format: cell-based; settings: Homo sapiens, 72 h, 0.05–50 µM
Protocol: as §1

tumour cell lines = assay: MTT cytotoxicity assay, summary over the tumour cell line panel; format: cell-based, human; settings: 50 µM, 72 h, MTT, tumour cell lines tested
Protocol: as §1

GLI-luciferase reporter = molecular target: GLI-luciferase reporter; parameters: method as in PMID 24923765; settings: cited from earlier work

Row | SMILES | cytotoxicity at 50 µM (HT29; HT-29, 72 h) | IC50 (HT29; HT-29, MTT, 72 h) | IC50 (AsPC-1) | cytotoxicity at 50 µM (HCT116; HCT-116, 72 h) | IC50 (HCT116; HCT-116, MTT, 72 h) | IC50 (Daoy; MTT) | cytotoxicity at 50 µM (Daoy) | cytotoxicity at 50 µM (H1975; NCI-H1975, 72 h) | IC50 (H1975; NCI-H1975, MTT, 72 h) | cytotoxicity at 72 h, 50 µM [1] | IC50 (HEK293) | melting point | IC50 (BxPC-3) | cytotoxicity at 50 µM (HT29; HT-29, 50 µM, 72 h, MTT) | cytotoxicity in tumour cell lines (tumour cell lines) | cytotoxicity at 50 µM (HCT116; HCT-116, 50 µM, 72 h, MTT) | cytotoxicity at 50 µM (Daoy; 50 µM, MTT) | cytotoxicity at 50 µM (H1975; NCI-H1975, 50 µM, 72 h, MTT) | IC50 in GLI-luciferase reporter assays (GLI-luciferase reporter)
1 | CCCCCn1cnc2c(-c3ccc(OC(F)(F)F)cc3)nc(NC3CCCCC3)nc21 [Compound 4e, N-cyclohexyl-9-pentyl-6-(4-(trifluoromethoxy)phenyl)-9H-purin-2-amine] | < 50% | > 50 µM | > 50 µM | < 50% | > 50 µM | > 50 µM | < 50% | < 50% | 23 ± 0.3 µM | < 50% | > 50 µM | 108 to 110 °C | > 50 µM |  |  |  |  |  | 
2 | CCCCCn1cnc2c(-c3ccc(OC(F)(F)F)cc3)nc(NCC3CCCCC3)nc21 [Compound 4h, N-(cyclohexylmethyl)-9-pentyl-6-(4-(trifluoromethoxy)phenyl)-9H-purin-2-amine] | < 50% | > 50 µM | > 50 µM | < 50% | > 50 µM | 19 ± 1.1 µM | 81 ± 1.1% | 61 ± 1.2% | 39 ± 1.2 µM | < 50% | > 50 µM | 78 to 79 °C | > 50 µM |  |  |  |  |  | 
3 | CCCCCn1cnc2c(-c3ccc(OC(F)(F)F)cc3)nc(N3CCN(c4ccncc4)CC3)nc21 [Compound 4r, 9-Pentyl-2-(4-(pyridin-4-yl)piperazin-1-yl)-6-(4-(trifluoromethoxy)phenyl)-9H-purine] |  | > 50 µM | > 50 µM |  | 19 ± 0.8 µM |  |  |  | 7.7 ± 0.4 µM | < 50% | > 50 µM | 109 to 110 °C | > 50 µM | < 50% | more than 80% | 81 ± 0.8% | 92 ± 0.4% | < 50% | 
4 | Cc1cccc(C)c1NC(=O)c1ccc(Nc2nc(-c3ccc(OC(F)(F)F)cc3)c3ncn(C)c3n2)cc1 [III] |  |  |  |  |  |  |  |  |  |  |  |  |  |  |  |  |  |  | nanomolar range
5 | Cc1ccc(CN2CCOCC2)cc1NC(=O)c1ccc(Nc2nc(-c3ccc(OC(F)(F)F)cc3)c3ncn(C)c3n2)cc1 [IV] |  |  |  |  |  |  |  |  |  |  |  |  |  |  |  |  |  |  | nanomolar range
